Assay results taken from PMC3433255 (Journal of medicinal chemistry, 2012).

Columns and labels:
[1] = system: MCF-7 breast cancer cells; assay: Growth inhibition, 3 h treatment; type: cell-based, human; settings: MCF-7, 3 h treatment followed by 3 – 4 days of growth; outside the concentration range; average of at least six measurements
[2] = physiological conditions, 37 °C and pH 7; cited from earlier work

SMILES | IC50 [1] [log M] | half-life of hydrolysis to dox [2]
COc1cccc2c1C(=O)c1c(O)c3c(c(O)c1C2=O)C[C@@](O)(C(=O)CO)C[C@@H]3O[C@H]1C[C@H](NC(=O)OCc2ccc(NC(=O)[C@H](CCCCN)NC(=O)[C@H](Cc3ccccc3)NC(=O)[C@@H](C)N)cc2)[C@H](O)[C@H](C)O1.O=P(O)(O)O [aFK-Dox, N-(N-(D-alanyl-L-phenylalanyl-L-lysyl)-p-aminobenzyloxycarbonyl)-doxorubicin] | > −6 | –
COc1cccc2c1C(=O)c1c(O)c3c(c(O)c1C2=O)C[C@@](O)(C(=O)CO)C[C@@H]3O[C@H]1C[C@@H]2NCO[C@@H]2[C@H](C)O1 [doxaz, doxazolidine] | – | approximately 3 min
